Measured values from patent US4562292A, “Trifluoromethylketone sulfides and reversible enzyme inhibition therewith” (priority 1983, dated 1985).
Entries after “also recorded” stand apart in the source; their conditions may differ. Like-named read-outs stand apart in the source and are kept apart here.

What was measured:
[1] = target: T1, bovine pancreatic type III trypsin (Bos taurus, UniProt P00760); assay: trypsin activity; assay type: biochemical
T1 construct: purchased Sigma type III
T1 sequence (P00760 24-246): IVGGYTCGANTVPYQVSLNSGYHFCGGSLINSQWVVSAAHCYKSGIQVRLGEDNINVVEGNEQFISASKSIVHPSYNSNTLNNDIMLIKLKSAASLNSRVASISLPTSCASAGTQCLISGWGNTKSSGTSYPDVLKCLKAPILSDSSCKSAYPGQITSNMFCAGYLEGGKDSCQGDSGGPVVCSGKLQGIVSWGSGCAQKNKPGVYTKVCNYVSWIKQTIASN
Method: For trypsin, 1.5 ml of p-toluenesulfonyl-L-arginine methyl ester (Sigma) in Tris HCl buffer (pH 8.1, 0.04M with 0.1M CaCl2) was added to 1.5 ml of the same buffer containing bovine pancreatic type III trypsin (Sigma, 0.24 μg) to give a final substrate concentration of 1×10^-4 M. The assay was performed at 25° C.
(§1) For AChE, trypsin and α-ChT, the inhibitor was added to ethanol 10 min prior to the substrate and preincubated at the same temperature used for the actual assay. In no case was greater than 1% v/v ethanol added, and ethanol controls were always run. For the spectrophotometric enzyme assays, initial studies were run on a Varian-Cary 219 UV/visible spectrophotometer, while subsequent assays were run on a Gilford manual EIA reading using disposable cuvettes.
(§2) In each case, at least three replicates of each inhibitor concentration were used. A minimum of two inhibitor concentrations showing greater and less than 50% inhibition were used to determine the I50 values from semilog plots except in the case of weaker inhibitors. Only those points on the apparently linear portion of the curve were used to calculate the I50 's.

T. ni JHE [2] = assay: removal of inhibitor by dialysis (reversibility of inhibition); assay type: biochemical, Trichoplusia ni; details: for enzyme activity after dialysis: 48 hours after starting the dialysis; for t0.5 of reactivation / type of inhibition of T. ni JHE: dialysis
T. ni larvae [3] = assay: topical treatment of T. ni larvae, time of pupation; assay type: in vivo, Trichoplusia ni; details: for delay of pupation versus ethanol controls: 0.1 and 0.2μ mole per application, 3 times per day, L5D1 and D2, topical; for delay of pupation: topical
Method: (§3) T. ni larvae are treated with 1 or 2μ liters of ethanol, with TFPOS, wit o-ethyl-S-phenyl phosphoramidothiolate (EPPAT), or with 1,1,1-trifluorotetradecan-2-one (TFT) in 1×10^-1 M ethanol solutions on the dorsum of the thorax three times per day (4, 12 and 17 hr after lights on) during the first two days of the last larval stadium. The insects were held under standard rearing conditions (27° C., 14 hr light, 10 hr dark). The time of pupation was checked daily at 4 hr after lights on and the pupae were checked for successful emergence two weeks later.
(§4) Larvae were treated on the dorsum of the thorax with 1 or 2μ liters of ethanol (control) and with 1 or 2μ liters, respectively, of 10^-1 M TFT, TFPOS, DTFT or EPPAT in ethanol, 3 times per day at 4, 12 and 17 h ALO (after lights on) on L5Dl and D2. Time of pupation was checked daily at 4 h ALO, and emergence was checked 2 weeks after treatment. L5Dl larvae 4 h ALO were also treated, but only once with 1μ liter ethanol or with 1μ liter of 10-1 M TFT, TFPOS, or EPPAT in ethanol, and then were bled at 1, 8, 12, 23, 28, or 32 h after treatment. Hemolymph was collected from five larvae, mixed and frozen at -60° C. until assayed for JHE and α-NAE activity. […] Death usually occured during the larval-pupal transformation, with the control mortality at 2μ liters of ethanol being 1%, TFT at 0.2M being 6%, an TFPOS being 4%.

T. ni larvae [4] = assay: mortality of T. ni larvae after repeated topical applications; assay type: in vivo, Trichoplusia ni; details: for mortality at 0.2 µmol/application: Trichoplusia, topical, repeated applications of 2μ liters (0.2 moles/application), Example VIII; for mortality: repeated 1μ liter applications of 1×10^-1 M solution
Method: as §3, §4

α-NAE = assay: α-Naphtyl acetate (α-NA) hydrolysis in T. ni prepupal hemolymph; assay type: biochemical, Trichoplusia ni; details: hemolymph of T. ni prepupae, substrate 2.3×10^-4 M; read-out: I50 (M) α-NAE
Method: α-Naphtyl acetate (α-NA) hydrolysis was monitored similarly in the hemolymph of prepupae of T. ni (fifth stadium, day 4) with a final substrate of 2.3×10^-4 M. Plasma dilutions and incubation times were chosen to give a hydrolysis rate which was linear with time.
as §2

JH esterase [5] = assay: JH esterase inhibition in T. ni hemolymph; assay type: biochemical, Trichoplusia ni; details: for IC50: diluted T. ni larval plasma, 10 min preincubation at 30° C., 5×10^-6 M JH III, read-out: I50 (M) JHE
Method: JH esterase activity was monitored in the hemolymph collected from last stadium day two larvae of the cabbage looper, Trichoplusia ni, Lepidoptera, Noctuidae. The plasma was diluted (v/v) in sodium phosphate buffer (pH 7.4, 0.08M with 0.01% [w/v] phenyulthiourea) and frozen at -60° C. until used. The inventive compounds were added in 1μ liter of ethanol to 100μ liters of the diluted plasma and preincubated for 10 min at 30° C. before adding substrate (ClO^3 H JH III New England Nuclear and unlabeled E, E JH III, Calbiochem) in 1μ liter of ethanol to give a final concentration of 5×10^-6 M JH III containing about 30,000 dpm/assay (Hammock and Sparks, Anal. Biochem. 82, 573 (1977).
as §2

T. ni JHE [6] = assay: in vivo inhibition of T. ni JHE after topical application; design: species or system Trichoplusia ni; details: for maximum percent inhibition obtainable after treatment / selectivity for JHE in vivo: compared with EPPAT; for time of maximum inhibition of T. ni JHE after topical application: single dose 0.1μ moles/larve
Method: as §4
In another study, the in vivo inhibition of T. ni JHE following a single dose (0.1μ moles/larve) of EPPAT and TFPOS respectively was monitored. Maximum inhibition of T. ni JHE was obtained one hour after topical application for each.

[7] = target: T2, Type VI-S electric eel AChE (Electrophorus electricus, UniProt O42275); assay: acetylcholinesterase (AChE) activity; assay type: biochemical
T2 construct: purchased Sigma Type VI-S
T2 sequence (O42275 24-633): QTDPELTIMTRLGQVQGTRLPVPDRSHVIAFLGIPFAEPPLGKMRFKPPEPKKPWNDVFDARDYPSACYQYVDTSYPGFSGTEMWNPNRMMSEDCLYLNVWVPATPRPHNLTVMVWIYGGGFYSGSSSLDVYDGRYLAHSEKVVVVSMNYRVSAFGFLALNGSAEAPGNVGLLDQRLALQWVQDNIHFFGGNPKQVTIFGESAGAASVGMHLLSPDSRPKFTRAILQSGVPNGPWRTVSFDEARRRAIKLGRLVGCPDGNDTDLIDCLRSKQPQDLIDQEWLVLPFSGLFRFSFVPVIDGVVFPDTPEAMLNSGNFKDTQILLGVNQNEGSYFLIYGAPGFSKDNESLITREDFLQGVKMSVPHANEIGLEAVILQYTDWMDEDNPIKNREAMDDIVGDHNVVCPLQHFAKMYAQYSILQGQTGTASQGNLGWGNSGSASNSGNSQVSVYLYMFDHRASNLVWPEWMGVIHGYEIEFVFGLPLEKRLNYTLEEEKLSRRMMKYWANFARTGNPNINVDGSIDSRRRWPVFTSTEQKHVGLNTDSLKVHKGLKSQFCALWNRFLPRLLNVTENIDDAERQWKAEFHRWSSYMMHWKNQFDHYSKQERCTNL
Method: For acetylcholinesterase (AChE) activity, 20μ liters of acetylthiocholine iodide (Sigma) in sodium phosphate buffer (0.05M, ph 7.2) was added to Type VI-S electric eel AChE (Sigma, 10 ng with 2-400 units/mg protein) in 3 ml the same buffer to give a final substrate concentration of 5×10^-4 M. The assay was run at 37° C.
as §1, §2

clofibrate esterase = assay: hydrolysis of clofibrate by microsomal protein; assay type: biochemical, human
Excerpt: The drug clofibrate (α-[4-chlorophenoxy)-α-methylpropionate; Atromid-S) is one of a class of compounds given to heart patients as a hypolipidemic agent.

JH esterase [8] = details: crude juvenile hormone esterase from the cabbage looper; cited from earlier work
T. ni larvae [9] = details: cited from earlier work
[10] = p-toluenesulfonyl-L-arginine methyl ester 1×10^-4 M, 25° C., read-out: I50 (M) Trypsin (*greater than)
[11] = acetylthiocholine iodide 5×10^-4 M, 37° C., * = greater than, read-out: I50 (M) AChE

SMILES | IC50 [1, 10] | IC50 (α-NAE) | IC50 [7, 11] | IC50 (JH esterase [5]) | other results
CCCCCCCCSCC(=O)C(F)(F)F [Compound 1, 1,1,1-Trifluoro-3-thioocytylpropan-2-one] | > 1e-05 M | 1.2e-06 M | 2.3e-06 M | – | enzyme activity after dialysis (T. ni JHE [2]): restored gradually to the same activity as in the uninhibited enzyme; t0.5 of reactivation (T. ni JHE [2]): more than 20 hours; type of inhibition of T. ni JHE (T. ni JHE [2]): reversible inhibitors; delay of pupation versus ethanol controls (T. ni larvae [3]; listed as TFPOS): pupation was delayed with respect to the controls in a dose-dependent manner; delay of pupation (T. ni larvae [3]; 0.2μ moles/application): more dramatic; in vivo activity (T. ni larvae [3]; in vivo): pronounced in vivo activity; delay of pupation (T. ni larvae [3]; repeated doses of 0.1μ moles, first two days of last larval stadium): effective in delaying the pupation; mortality at 0.2 µmol/application (T. ni larvae [4]): 4%; mortality (T. ni larvae [4]): No mortality; inhibition I50 value, juvenile hormone esterases (JH esterase [5]; in words): nanomolar range; times more active in vitro for juvenile hormone esterase than TFT (JH esterase [5]; versus TFT): over 40 times; maximum percent inhibition obtainable after treatment (T. ni JHE [6]): as effective; selectivity for JHE in vivo (T. ni JHE [6]): more selective for JHE in vivo than EPPAT; time of maximum inhibition of T. ni JHE after topical application (T. ni JHE [6]): one
CCCCCCCCCSCC(=O)C(F)(F)F [Compound 2] | > 0.0001 M | 6.3e-06 M | 9.3e-07 M | 3.7e-09 M | –
CCCCCCCCCCSCC(=O)C(F)(F)F [Compound 3] | 8.2e-05 M | 1e-05 M | 3.2e-06 M | 2e-08 M | –
CCCCCCCCCCCSCC(=O)C(F)(F)F [Compound 4] | > 0.0001 M | 4.5e-05 M | 2.6e-06 M | 4.3e-08 M | –
CCCCCCCCCCCCSCC(=O)C(F)(F)F [Compound 5] | > 0.0001 M | 9.7e-05 M | 2.2e-06 M | 1.5e-08 M | –
O=C(CSC1CCCCC1)C(F)(F)F [Compound 6] | > 0.0001 M | 7.1e-07 M | 1.8e-06 M | 5.2e-06 M | –
Cc1ccccc1SCC(=O)C(F)(F)F [Compound 9] | 8.5e-05 M | 6e-07 M | 3.7e-07 M | 4.3e-06 M | –
Cc1ccc(SCC(=O)C(F)(F)F)cc1 [Compound 11] | > 0.0001 M | 1.6e-06 M | 6.1e-07 M | 1.1e-07 M | –
CC(C)c1ccccc1SCC(=O)C(F)(F)F [Compound 12] | 4.7e-05 M | 2.7e-07 M | 4.9e-08 M | 3.4e-07 M | –
O=C(CSc1ccc(Cl)cc1)C(F)(F)F [Compound 19] | – | – | – | – | Wilkinson kinetics (clofibrate esterase; clofibrate hydrolysis): curves expected for a slowly reversible inhibitor; effect on hydrolysis of clofibrate (clofibrate esterase; low concentrations, Vm 104 nmol/min mg microsomal protein, Km 5.5 mM, ethanol release): significant delay in reacting maximal velocity
O=C(CSc1ccc(Br)cc1)C(F)(F)F [Compound 20] | > 1e-05 M | 4.9e-06 M | 2.4e-06 M | 4.1e-07 M | –
CC(C)=CCC/C(C)=C/CCSCC(=O)C(F)(F)F [Compound 31, (E)-8,12-dimethyl-4-thia-1,1,1-trifluorotrideca-7,11-dien-2-one] | > 0.0001 M | 7.2e-07 M | 6.2e-05 M | 3.2e-09 M | delay of pupation versus ethanol controls (T. ni larvae [3]; listed as DTFT): pupation was delayed with respect to the controls in a dose-dependent manner; maximum percent inhibition obtainable after treatment (T. ni JHE [6]): as effective; selectivity for JHE in vivo (T. ni JHE [6]): more selective for JHE in vivo than EPPAT
COC(C)(C)CCC/C(C)=C/CCSCC(=O)C(F)(F)F [Compound 32, (E)-8,12-Dimethyl-12-methoxy-4-Thia-1,1,1-trifluorotridec-7-en-2-one] | – | 1.9e-06 M | – | 3.1e-09 M | IC50 [1]: > 0.0001 M; IC50 [7]: > 0.0001 M
CCOP(N)(=O)Sc1ccccc1 (stereo not drawn) [EPPAT, O-ethyl-S-phenyl phosphoramidothiolate, reference compound] | – | – | – | – | in vitro inhibition of juvenile hormone esterase (literature) (JH esterase [8]): potent in vitro inhibition of juvenile hormone esterase; enzyme activity after dialysis (T. ni JHE [2]): almost complete loss of enzyme activity; type of inhibition of T. ni JHE (T. ni JHE [2]): irreversible inhibitor; delay of pupation versus ethanol controls (T. ni larvae [3]): delayed preparation at both doses; also recorded: pupation was delayed with respect to the controls in a dose-dependent manner; persistence of in vivo inhibition (T. ni JHE [6]; compared with TFPOS and DTFT): more persistent; time of maximum inhibition of T. ni JHE after topical application (T. ni JHE [6]): one; in vivo activity, topical application to cabbage looper (literature) (T. ni larvae [9]): disrupt development of the cabbage looper
CCCCCCCCCCCCC(=O)C(F)(F)F [TFT, 1,1,1-trifluorotetradecan-2-one, reference compound] | – | – | – | – | in vitro inhibition of juvenile hormone esterase (literature) (JH esterase [8]): relatively greater juvenile hormone esterase activity in vitro than EPPAT; enzyme activity after dialysis (T. ni JHE [2]): restored gradually to the same activity as in the uninhibited enzyme; t0.5 of reactivation (T. ni JHE [2]): more than 20 hours; type of inhibition of T. ni JHE (T. ni JHE [2]): reversible inhibitors; delay of pupation versus ethanol controls (T. ni larvae [3]): neither dose of TFT resulted in a delay in pupation; also recorded: no difference in the time of pupation; also recorded: no such in vivo effect; mortality at 0.2 µmol/application (T. ni larvae [4]): 6%; mortality (T. ni larvae [4]): No mortality; in vivo activity, topical application to cabbage looper (literature) (T. ni larvae [9]): lack of pronounced in vivo activity
